Data taken from patent publication US20150136603A1, “WATER-SOLUBLE, UV-ABSORBING AND/OR FLOURESCENT COMPONENTS WITH VERY HIGH ISOELECTRIC POINTS” (TEXAS A & M UNIVERSITY SYSTEM, priority 2004, published 2015).

Experiment: pKa values for the secondary alcohol OH group

Structure (SMILES) | pKa | pKa value for the secondary alcohol OH group
OC[C@H]1O[C@H](O[C@H]2[C@H](O)[C@@H](O)C(O)O[C@@H]2CO)[C@H](O)[C@@H](O)[C@@H]1O (mixture of isomers) [maltose] | 11.9 | –
OC[C@H]1O[C@@H]2O[C@H]3[C@H](O)[C@@H](O)[C@@H](O[C@H]4[C@H](O)[C@@H](O)[C@@H](O[C@H]5[C@H](O)[C@@H](O)[C@@H](O[C@H]6[C@H](O)[C@@H](O)[C@@H](O[C@H]7[C@H](O)[C@@H](O)[C@@H](O[C@H]1[C@H](O)[C@H]2O)O[C@@H]7CO)O[C@@H]6CO)O[C@@H]5CO)O[C@@H]4CO)O[C@@H]3CO [α-CD] | – | 12.05
OC[C@@H](O)[C@@H](O)[C@H](O)[C@@H](O)CO [sorbitol] | 13.6 | –
